Reference: patent US4443436A, “C-20-Modified macrolide derivatives of the macrolide antibiotics tylosin, desmycosin, macrocin, and lactenocin” (Eli Lilly and Company, priority 1982, dated 1984)
Converted amounts (≈) assume the structure as drawn. “And” between values parts separate entries of the source, which are not always exact repeats. Identical values can stand only once. Like-named read-outs stand apart in the source and are kept apart here.

Tests used:
[1] = system: Streptococcus pyogenes C203; test: In vivo protection of mice experimentally infected with S. pyogenes C203; details: mice, doses given 1 and 4 hours post-infection; for ED50: Streptococcus pyogenes
Experimental: The C-20 modified derivatives of this invention have shown in vivo antimicrobial activity against experimentally-induced infections in laboratory animals. When two doses of test compound were administered to mice experimentally infected with S. pyogenes C203, the activity observed was measured as an ED50 value [effective dose in mg/kg to protect 50% of the test animals: see Warren Wick, et al., J. Bacteriol. 81, 233-235 (1961)].

Streptococcus bovis 80 = test: MIC, broth-dilution microtiter test, Streptococcus bovis 80; type: cell-based
Description: (§1) The MIC's in Table X were obtained using conventional broth-dilution microtiter tests.

[2] = system: Streptococcus Group D X66; test: MIC, standard agar-dilution assay, Streptococcus Group D X66; type: cell-based; details: Streptococcus Group D X66, agar dilution
Mycoplasma gallisepticum = test: MIC, broth-dilution microtiter test, Mycoplasma gallisepticum; type: cell-based; details: Mycoplasma gallisepticum, broth-dilution microtiter
Description: as §1

[3] = system: Pasteurella multocida 17E; test: MIC, broth-dilution microtiter test, Pasteurella multocida 17E; type: cell-based; details: Pasteurella multocida 17E, bovine isolate, broth-dilution microtiter
Description: as §1

Mycoplasma hyorhinis = test: MIC, broth-dilution microtiter test, Mycoplasma hyorhinis; type: cell-based
Description: as §1

[4] = system: Staphylococcus aureus S13E; test: MIC, standard agar-dilution assay, Staphylococcus aureus S13E; type: cell-based
[5] = system: Pasteurella hemolytica 22C; test: MIC, broth-dilution microtiter test, Pasteurella hemolytica 22C; type: cell-based; details: Pasteurella hemolytica 22C, broth-dilution microtiter
Description: as §1

[6] = system: Haemophilus influenzae Holt; test: MIC, standard agar-dilution assay, Haemophilus influenzae Holt; type: cell-based
Pasteurella multocida [7] = test: Oral (gavage) treatment of Pasteurella multocida-infected chicks; type: in vivo, one-day-old chicks
Experimental: (§2) Many of the C-20 modified derivatives of this invention have also shown in vivo antibacterial activity against infections induced by gram-negative bacteria. Tables XII and XIII summarize the results of tests in which illustrative compounds were evaluated against Pasteurella infection in one-day-old chicks. The compounds were administered parenterally or orally after challenge of the chicks with Pasteurella multocida (0.1 ml of a 10^-4 dilution of a twenty-hour tryptose broth culture of an avian P. multocida given subcutaneously). In these tests, unless indicated otherwise, all non-medicated infected chicks died within 24 hours of Pasteurella challenge. In the tests summarized in Table XII the compounds were administered by subcutaneous injection at a dosage of 30 mg/kg, 1 and 4 hours post-challenge of the chicks with P. multocida. In the test summarized in Table XIII the compounds were administered by gavage at 1 and 5 hours post-challenge of the chicks with P. multocida.

Staphylococcus aureus = test: MIC, broth-dilution microtiter test, Staphylococcus aureus; type: cell-based; details: broth-dilution microtiter
Description: as §1

[8] = system: Haemophilus influenzae R252; test: MIC, standard agar-dilution assay, Haemophilus influenzae R252; type: cell-based; details: Haemophilus influenzae R252, ampicillin-resistant strain
[9] = system: Streptococcus pyogenes C203; test: MIC, standard agar-dilution assay, Streptococcus pyogenes C203; type: cell-based
[10] = system: Pasteurella multocida 60A; test: MIC, broth-dilution microtiter test, Pasteurella multocida 60A; type: cell-based; details: Pasteurella multocida 60A, avian isolate, broth-dilution microtiter
Description: as §1

[11] = system: Staphylococcus aureus V41; test: MIC, standard agar-dilution assay, Staphylococcus aureus V41; type: cell-based; details: Staphylococcus aureus V41, penicillin-resistant strain, agar dilution
[12] = system: Staphylococcus epidermidis EPI1; test: MIC, standard agar-dilution assay, Staphylococcus epidermidis EPI1; type: cell-based; details: Staphylococcus epidermidis EPI1, agar dilution
[13] = system: Staphylococcus aureus X1.1; test: MIC, standard agar-dilution assay, Staphylococcus aureus X1.1; type: cell-based
[14] = system: Staphylococcus aureus X400; test: MIC, standard agar-dilution assay, Staphylococcus aureus X400; type: cell-based; details: Staphylococcus aureus X400, methicillin-resistant strain, agar dilution
Pasteurella multocida [15] = test: Subcutaneous treatment of Pasteurella multocida-infected chicks; type: in vivo, one-day-old chicks
Experimental: as §2

Mycoplasma hyopneumoniae = test: MIC, broth-dilution microtiter test, Mycoplasma hyopneumoniae; type: cell-based; details: Mycoplasma hyopneumoniae, broth-dilution microtiter
Description: as §1

Streptococcus Group 9960 = test: MIC, standard agar-dilution assay, Streptococcus Group 9960; type: cell-based; details: Streptococcus Group 9960, agar dilution
[16] = system: Streptococcus pneumoniae Park I; test: microbe, parasite or virus in culture; type: cell-based; details: Streptococcus pneumoniae Park I, agar dilution
[17] = system: Staphylococcus epidermidis EPI2; test: MIC, standard agar-dilution assay, Staphylococcus epidermidis EPI2; type: cell-based; details: Staphylococcus epidermidis EPI2; agar dilution
Mycoplasma synoviae = test: MIC, broth-dilution microtiter test, Mycoplasma synoviae; type: cell-based; details: Mycoplasma synoviae; broth-dilution microtiter
Description: as §1

[18] = 30 mg/kg × 2, 1 and 4 hours post-challenge
[19] = Streptococcus bovis 80, broth-dilution microtiter
[20] = Mycoplasma hyorhinis, broth-dilution microtiter
[21] = Staphylococcus aureus S13E, agar dilution
[22] = Haemophilus influenzae Holt, ampicillin-sensitive strain, agar dilution
[23] = Streptococcus pyogenes C203, agar dilution
[24] = Staphylococcus aureus X1.1, agar dilution

SMILES: CCC1OC(=O)CC(O)C(C)C(OC2OC(C)C(O)C(N(C)C)C2O)C(CCCl)CC(C)C(=O)C=CC(C)=CC1COC1OC(C)C(O)C(OC)C1OC (centres unmarked) [Compound 21, 20-DH-DO-20-Chlorodesmycosin]
- ED50 ([1]; C203, sc, subcutaneous, read-out: ED50, Subcutaneous): 0.7 mg/kg
- ED50 ([1]; C203, oral, read-out: ED50, Oral): 6 mg/kg
- MIC (Streptococcus bovis 80; Streptococcus equinus, 80): 3.12 µg/mL (≈ 3.94 µM)
- MIC ([2]; read-out: MIC): 8 µg/mL (≈ 10.1 µM)
- MIC (Mycoplasma gallisepticum; Mycoplasmoides gallisepticum, read-out: MIC): 0.39 µg/mL (≈ 0.492 µM)
- MIC ([3]; read-out: MIC): 12.5 µg/mL (≈ 15.8 µM)
- MIC (Mycoplasma hyorhinis; Mycoplasma): 50 µg/mL (≈ 63.1 µM)
- MIC ([4]; Staphylococcus aureus, S13E): 0.12 µg/mL (≈ 0.151 µM)
- MIC ([5]; read-out: MIC): 12.5 µg/mL (≈ 15.8 µM)
- MIC ([6]; Haemophilus influenzae): 16 µg/mL (≈ 20.2 µM)
- Number of Deaths/Number tested (Pasteurella multocida [7]; 1.0 g/gal equivalent): 3/9
- Number of Deaths/Number tested (Pasteurella multocida [7]; 2.0 g/gal equivalent): 0/9 and 0/10
- Number of Deaths/Number tested (Pasteurella multocida [7]; 2.0 g/gal equivalent, 13/20 infected nonmedicated chicks died in this test): 2/10
- MIC (Staphylococcus aureus; read-out: MIC): 0.78 µg/mL (≈ 0.984 µM)
- MIC ([8]; read-out: MIC): 16 µg/mL (≈ 20.2 µM)
- MIC ([9]; Streptococcus pyogenes, C203): 0.25 µg/mL (≈ 0.315 µM)
- MIC ([10]; read-out: MIC): 6.25 µg/mL (≈ 7.89 µM)
- MIC ([11]; read-out: MIC): 0.12 µg/mL (≈ 0.151 µM)
- MIC ([12]; read-out: MIC): 0.12 µg/mL (≈ 0.151 µM)
- MIC ([13]; Staphylococcus aureus, X1.1): 0.25 µg/mL (≈ 0.315 µM)
- MIC ([14]; read-out: MIC): 0.5 µg/mL (≈ 0.631 µM)
- Number of Deaths/Number Treated (Pasteurella multocida [15]; [18]): 9/10
- Number of Deaths/Number Treated (Pasteurella multocida [15]; 30 mg/kg × 2, 8/10 infected nonmedicated chicks died in this test): 7/10
- MIC (Mycoplasma hyopneumoniae; Mesomycoplasma hyopneumoniae, read-out: MIC): 12.5 µg/mL (≈ 15.8 µM)
- MIC (Streptococcus Group 9960; GROUP9960, read-out: MIC): 8 µg/mL (≈ 10.1 µM)
- MIC ([16]; read-out: MIC): 1 µg/mL (≈ 1.26 µM)

SMILES: CCOC(=O)NN(CCC1CC(C)C(=O)C=CC(C)=CC(COC2OC(C)C(O)C(OC)C2OC)C(CC)OC(=O)CC(O)C(C)C1OC1OC(C)C(O)C(N(C)C)C1O)C(=O)OCC (centres unmarked) [Compound 45, 20-DH-DO-20-[N-(Ethoxycarbonyl)-N-(ethoxycarbonylamino)]aminodesmycosin]
- MIC [17]: 0.25 µg/mL (≈ 0.268 µM)
- ED50, Oral ([1]; oral): > 50 mg/kg × 2
- ED50, Subcutaneous ([1]; subcutaneous): 2.1 mg/kg × 2
- MIC (Streptococcus bovis 80; [19]): 12.5 µg/mL (≈ 13.4 µM)
- MIC [2]: 16 µg/mL (≈ 17.2 µM)
- MIC (Mycoplasma gallisepticum): 0.39 µg/mL (≈ 0.418 µM)
- MIC [3]: 25 µg/mL (≈ 26.8 µM)
- MIC (Mycoplasma hyorhinis; [20]): -- (Not active at 50 mcg/ml, the highest level tested)
- MIC [4, 21]: 0.5 µg/mL (≈ 0.536 µM)
- MIC [5]: 50 µg/mL (≈ 53.6 µM)
- MIC [6, 22]: 32 µg/mL (≈ 34.3 µM)
- MIC (Staphylococcus aureus): 1.56 µg/mL (≈ 1.67 µM)
- MIC ([8]; agar dilution): 32 µg/mL (≈ 34.3 µM)
- MIC [9, 23]: 2 µg/mL (≈ 2.15 µM)
- MIC [10]: 25 µg/mL (≈ 26.8 µM)
- MIC [11]: 0.5 µg/mL (≈ 0.536 µM)
- MIC [12]: 0.5 µg/mL (≈ 0.536 µM)
- MIC [13, 24]: 0.5 µg/mL (≈ 0.536 µM)
- MIC [14]: 1 µg/mL (≈ 1.07 µM)
- Number of Deaths/Number Treated (Pasteurella multocida [15]; [18]): 9/10
- MIC (Mycoplasma hyopneumoniae): 6.25 µg/mL (≈ 6.71 µM)
- MIC (Streptococcus Group 9960): 8 µg/mL (≈ 8.58 µM)
- MIC [16]: 0.5 µg/mL (≈ 0.536 µM)
- MIC (Mycoplasma synoviae): 6.25 µg/mL (≈ 6.71 µM)

SMILES: CCC1OC(=O)CC(O)C(C)C(OC2OC(C)C(O)C(N(C)C)C2O)C(CCS(=O)(=O)c2ccc(C)cc2)CC(C)C(=O)C=CC(C)=CC1COC1OC(C)C(O)C(OC)C1OC (centres unmarked) [Compound 46, 20-DH-DO-20-(p-Toluenesulfonyl)desmycosin]
- MIC [17]: 0.12 µg/mL (≈ 0.132 µM)
- ED50, Oral ([1]; oral): > 50 mg/kg × 2
- ED50, Subcutaneous ([1]; subcutaneous): 4.2 mg/kg × 2
- MIC (Streptococcus bovis 80; [19]): 6.25 µg/mL (≈ 6.85 µM)
- MIC [2]: 8 µg/mL (≈ 8.77 µM)
- MIC (Mycoplasma gallisepticum): 0.19 µg/mL (≈ 0.208 µM)
- MIC [3]: 12.5 µg/mL (≈ 13.7 µM)
- MIC (Mycoplasma hyorhinis; [20]): 50 µg/mL (≈ 54.8 µM)
- MIC [4, 21]: 0.25 µg/mL (≈ 0.274 µM)
- MIC [5]: 12.5 µg/mL (≈ 13.7 µM)
- MIC [6, 22]: 4 µg/mL (≈ 4.39 µM)
- MIC (Staphylococcus aureus): 0.39 µg/mL (≈ 0.428 µM)
- MIC ([8]; agar dilution): 8 µg/mL (≈ 8.77 µM)
- MIC [9, 23]: 1 µg/mL (≈ 1.1 µM)
- MIC [10]: 12.5 µg/mL (≈ 13.7 µM)
- MIC [11]: 0.25 µg/mL (≈ 0.274 µM)
- MIC [12]: 0.25 µg/mL (≈ 0.274 µM)
- MIC [13, 24]: 0.25 µg/mL (≈ 0.274 µM)
- MIC [14]: 0.25 µg/mL (≈ 0.274 µM)
- Number of Deaths/Number Treated (Pasteurella multocida [15]; [18]): 0/10
- MIC (Mycoplasma hyopneumoniae): 12.5 µg/mL (≈ 13.7 µM)
- MIC (Streptococcus Group 9960): 8 µg/mL (≈ 8.77 µM)
- MIC [16]: 1 µg/mL (≈ 1.1 µM)
- MIC (Mycoplasma synoviae): 0.78 µg/mL (≈ 0.855 µM)
